Data taken from US5750354A, “Lipoxin transport system and uses therefor” (priority 1994, dated 1998).
Where “and” joins values, the source holds several entries; their conditions need not be identical. Equal entries are not always repeated. Entries after “also recorded” stand apart in the source; their conditions may differ. One block for each compound: values may come before it.

Tests used:
[1] = tested on: unstimulated human erythrocytes; experiment: [3H]LXA4 uptake into erythrocytes; type: cell-based; conditions: 0.5 mM DISA, 5 nM LXA4
Protocol: Red Blood Cells (RBC): RBC were obtained directly from the heparinized blood of normal human donors. During repeated (four) washing steps, the uppermost portion of the cell pellets was aspirated and discarded to remove residual minor contamination of buffy coat cells.
(§1) Human red cells, lymphocytes, and platelets were isolated from peripheral blood as described under Methods. Undifferentiated HL-60 cells were grown in culture according to standard protocols. Differentiated HL-60 cells were obtained by exposing cells to 1 μM retinoic acid for 5 days in culture. After harvesting and isolation, all cells were kept in the standard medium for 1 hour at 37° C. prior to assay. […] Results represent the means±SEM of three-four separate experiments for each cell type.

human neutrophils [2] = experiment: [3H]LXA4 methyl ester influx into human neutrophils; type: cell-based
Protocol: Incubations were performed at 37° C. in capped, plastic tubes (Falcon Plastics, Oxnard, Calif.) under various experimental conditions (neutrophils 15-20×10^6 /ml). […] At stated intervals, duplicate aliquots of the cell suspensions were layered onto 0.5 ml of silicone oil (Versilube F-5, General Electric Corp., Waterford, N.Y.) contained in 1.5 ml plastic tubes and centrifuged for 1 min at 8,000 g in a microcentrifuge (Beckman Instruments, Fullerton, Calif.).
The aqueous and oil phases were aspirated and discarded. […] Influx is expressed here as fmol/10^6 cells/min whereas flux rates in all previous work from our laboratory (L.S.) have been reported in meq/liter of cell water.min.
(§2) Influx rates were calculated by fitting the data points to a single exponential equation (Eq. 1). Results have been taken from three experiments based upon duplicate determinations. […] Specific binding was taken as the difference between total and non-specific binding. […] Results are from three separate experiments, each performed in triplicate.

lipoxin transport system [3] = experiment: [3H]LXA4 influx into human neutrophils (unidirectional tracer flux); conditions: for final [3H]LXA4 uptake (combined data) / initial [3H]LXA4 influx rate (combined data): combined data: Control, 0.4 mM SITS, 1 mM probenecid, Na+-free medium, high K+ medium; for effect on [3H]LXA4 influx: probenecid 1 mM, SITS 0.4 mM
[4] = tested on: retinoic acid-induced HL-60 cells; experiment: [3H]LXA4 uptake into retinoic acid-induced HL-60 cells; type: cell-based, human; conditions: 0.5 mM DISA, 5 nM LXA4
Protocol: (§3) HL-60 Cells: HL-60 cells were seeded into RPMI medium supplemented with 100 U/ml penicillin, 100 μg/ml streptomycin, and 10% fetal calf serum (Hyclone, Logan, Utah) and grown at 37° C. in 250 ml flasks in a 5% CO2 /95% air atmosphere. Cells were induced to differentiate toward a neutrophil-like phenotype by exposure to 1 μM retinoic acid for 5 days.
as §1

[5] = biological target: T1, specific lipoxin receptors (Homo sapiens, UniProt P25090); experiment: [3H]LXA4 ligand binding to human neutrophils
T1 sequence (P25090 1-351): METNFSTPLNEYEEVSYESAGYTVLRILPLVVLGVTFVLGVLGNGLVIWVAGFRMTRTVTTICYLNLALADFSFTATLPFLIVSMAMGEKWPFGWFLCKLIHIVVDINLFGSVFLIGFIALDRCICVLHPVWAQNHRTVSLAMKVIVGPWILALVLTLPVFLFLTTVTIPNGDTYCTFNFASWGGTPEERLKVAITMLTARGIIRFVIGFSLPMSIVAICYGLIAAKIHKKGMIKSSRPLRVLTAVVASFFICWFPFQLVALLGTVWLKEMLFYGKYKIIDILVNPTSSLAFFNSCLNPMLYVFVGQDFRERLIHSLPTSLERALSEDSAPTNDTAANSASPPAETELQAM
Protocol: as §2

[6] = tested on: unstimulated human platelets; experiment: [3H]LXA4 uptake into platelets; type: cell-based; conditions: 0.5 mM DISA, 5 nM LXA4
Protocol: Platelets: Platelets were purified to homogeneity from acid citrate dextrose-treated blood according to established protocols (Romano, M. and Serhan, C. N. (1992) Biochemistry 31:8269-8277).
as §1

human neutrophils [7] = conditions: 500 µM
[8] = tested on: undifferentiated HL-60 cells; experiment: [3H]LXA4 uptake into undifferentiated HL-60 cells; type: cell-based, human; conditions: 0.5 mM DISA, 5 nM LXA4
Protocol: as §3, §1

[9] = tested on: unstimulated human lymphocytes; experiment: [3H]LXA4 uptake into lymphocytes; type: cell-based; conditions: 0.5 mM DISA, 5 nM LXA4
Protocol: Lymphocvtes: The lymphocyte-rich interface layer was taken at the Ficoll-Hypaque gradient step of the neutrophil purification procedure. Platelets were removed by slow-speed centrifugation (see below) and contaminating monocytes and neutrophils by adherence to plastic Petri dishes for 1 hour at 37 ° C.
as §1

[10] = nM levels; cited from earlier work
protein kinase C (PKC) = conditions: about 10 nM; cited from earlier work
neutrophils = experiment: Phagocytosis of opsonized sheep red blood cells by neutrophils; type: cell-based, human; conditions: 100 nM or 1000 nM, pH 7.4, 37° C., 30 minutes
Protocol: Neutrophils were prepared as described in the general methodology and suspended at a concentration of 10×10^6 -15×10^6 cells/ml in Hepes Hanks buffer, pH 7.4, supplemented with 1 mg/ml BSA, 1 mg/ml glucose, 0.5 mM MgCl2 and 1.0 mM CaCl2 --2H2 O.
The sheep red blood cells (SRBCs) were prepared by washing the cells with 1× veronal-buffered saline (VBS), incubating the cells with a 1:500 dilution of rabbit anti-SRBC IgG antibody at 37° C. for 15 minutes, centrifuging the cells at 2000 rpm for 5 minutes at 4° C. and washing the cells twice with 1×VBS. SRBCs were resuspended at a final concentration of 10×10^8 cells/ml.
Each component was pipetted separately to the bottom of a 12×75 mm test tube to allow thorough mixing of the components.
To each 100 μl mixture was added 15 μl of opsonized SRBCs to start the phagocytosis reaction. The tubes were vortexed and placed in a 37° C. incubator for 30 minutes. After 30 minutes, the tubes were placed on ice to stop the reaction.
Non-phagocytosed SRBCs were lysed by adding 1.0 ml of 0.83% NH4 Cl to each tube, with shaking, and centrifuging the tubes quickly at 1500 rpm for 3 minutes. The supernatant was removed and the pellets were resuspended in 30 gl of PBS. The 30 μl solution was placed onto a polylysine-coated microscope slide and after 15 minutes the excess solution was removed from the slide. The cells on the slide were fixed with 1% glutaraldehyde for 5 minutes and then the excess glutaraldehyde was removed. The cells were stained with Giemsa Stain by immersing the slide in the stain for 25 minutes, rinsing the slide with water and allowing the slide to dry overnight.
The slides were examined with a light microscope at 100×power. SRBCs which were phagocytosed by neutrophils were visible as yellow cells within blue-stained neutrophils. The results for each reaction were expressed as a phagocytic index, representing the number of SRBCs phagocytosed per 100 neutrophils. […]

[11] = tested on: H+ +lactate- cotransporter; conditions: cited from earlier work
sulfate carrier = conditions: cited from earlier work
lipoxin transport system [12] = experiment: Irreversible inhibition of [3H]LXA4 influx after pretreatment of neutrophils with sulfhydryl-reactive agents; type: cell-based, human
Cl-/HCO3- exchanger = conditions: cited from earlier work

- IC50 (lipoxin transport system [3]; read-out: K0.5, concentration at which 50% of lipoxin transport is inhibited, drug 0-500 μM, uptake at 10 and 20 min, Michaelis-Menten inhibition kinetics): 12 ± 2 µM
- effect on binding of lipoxin to specific receptors [5]: not inhibitable
- [3H]LXA4 Binding, non-specific, in presence of drug ([5]; 0.5 mM drug, + unlabeled LXA4 0.3 μM): 0.41 ± 0.05 fmol/10^6 cells
- [3H]LXA4 Binding, total, in presence of drug ([5]; 0.5 mM drug, no unlabeled LXA4): 1.23 ± 0.08 fmol/10^6 cells
Compound: O=C(O)c1cc(I)cc(I)c1O [DISA, 3,5-diiodo-salicylic acid]
- [3H]LXA4 Uptake Rate in the presence of DISA [1]: 0.0019 ± 0.0008 fmol/10^6 cells/min
- [3H]LXA4 ME Influx in presence of drug (human neutrophils [2]; 0.5 mM drug): 481 ± 170 fmol/10^6 cells/min
- effect of drugs on [3H]LXA4 ME influx (human neutrophils [2]; DISA 0.5 mM, PCP 0.4 mM, mersalyl 0.5 mM): completely resistant
- inhibition of FMLP-enhanced [3H]LXA4 uptake (lipoxin transport system [3]; 100 nM FMLP + DISA): completely sensitive to inhibition
- inhibition of PMA-induced enhancement of [3H]LXA4 influx (lipoxin transport system [3]; 100 nM PMA + DISA): competely sensitive to inhibition
- [3H]LXA4 uptake by 1 min of incubation (lipoxin transport system [3]; 0.5 mM DISA): 2.9 fmol/10^6 cells
- effect on transport system-mediated component of uptake (lipoxin transport system [3]; 0.5 mM DISA): completely blocks; also recorded: markedly sensitive; also recorded: blocked
- slope of straight-line fit of [3H]LXA4 uptake in presence of drug (lipoxin transport system [3]; 0.5 mM DISA, 5 nM LXA4, not distinguishable from zero): 0.0046±0.0051 fmol/10^6 cells/min
- cell-associated [3H]LXA4, average of all data points (lipoxin transport system [3]; 0.5 mM DISA, 1-30 min): 2.88 fmol/10^6 cells
- inhibition of [3H]LXA4 influx (lipoxin transport system [3]; 0.5 mM drug): > 80%
- effect on uptake of [3H]LXA4 (lipoxin transport system [3]; each at 0.2-0.5 mM): inhibited the uptake
- [3H]LXA4 Uptake Rate in the presence of DISA [4]: 0.08 ± 0.02 fmol/10^6 cells/min
- [3H]LXA4 Uptake Rate in the presence of DISA [6]: -0.0005 ± 0.0015 fmol/10^6 cells/min
- efflux final value (relative cell content, combined data set) (human neutrophils [7]): 0.46±0.02
- efflux rate coefficient (combined data set) (human neutrophils [7]): 0.098 ± 0.008 min⁻¹
- [3H]LXA4 Uptake Rate in the presence of DISA [8]: 0.12 ± 0.02 fmol/10^6 cells/min
- [3H]LXA4 Uptake Rate in the presence of DISA [9]: 0.0053 ± 0.0036 fmol/10^6 cells/min

Compound: CCCCC[C@H](O)[C@H](O)/C=C/C=C/C=C\C=C\[C@@H](O)CCCC(=O)O [LXB4, lipoxin B4]
- vasodilation [10]: elicit prompt vasodilation
- effect on PKC activity (protein kinase C (PKC)): enhance
- effect on neutrophil phagocytosis, phagocytic index (neutrophils): inhibit phagocytosis

Compound: CCN1C(=O)C=CC1=O [NEM, N-ethylmaleimide]
- effect of SH-reactive compounds on [3H]LXA4 influx (lipoxin transport system [3]; 1 mM NEM, 0.4 mM iodoacetate): lacked efficacy; also recorded: do not inhibit
- effect on H+ +lactate- cotransport / lactic acid fluxes [11]: completely blocked

Compound: CC(=O)Nc1ccc(C=Cc2ccc(N=C=S)cc2S(=O)(=O)O)c(S(=O)(=O)O)c1 [SITS, 4-acetamido-4'-isothiocyanostilbene-2,2'-disulfonic acid]
- sensitivity of the sulfate carrier (sulfate carrier): very sensitive
- final [3H]LXA4 uptake (combined data) (lipoxin transport system [3]; 5 nM LXA4): 7.26±0.26 fmol/10^6 cells
- initial [3H]LXA4 influx rate (combined data) (lipoxin transport system [3]; 5 nM LXA4): 0.57±0.09 fmol/10^6 cells/min
- effect on [3H]LXA4 influx (lipoxin transport system [3]): no apparent impact; also recorded: not inhibited

Compound: O=C(O)c1cc[c]([Hg+])cc1.[OH-] [pHMB, p-hydroxymercuribenzoate]
- % Inhibition of Transport (irreversible) (lipoxin transport system [12]): ~ 65% and 66 ± 4%
- effect on binding of lipoxin to specific receptors [5]: not inhibitable
- effect on Cl-/HCO3- exchange (Cl-/HCO3- exchanger): resistant

Compound: CCCN(CCC)S(=O)(=O)c1ccc(C(=O)O)cc1 [probenecid]
- sensitivity of the sulfate carrier (sulfate carrier): very sensitive
- final [3H]LXA4 uptake (combined data) (lipoxin transport system [3]; 5 nM LXA4): 7.26±0.26 fmol/10^6 cells
- initial [3H]LXA4 influx rate (combined data) (lipoxin transport system [3]; 5 nM LXA4): 0.57±0.09 fmol/10^6 cells/min
- effect on [3H]LXA4 influx (lipoxin transport system [3]): no apparent impact; also recorded: not inhibited
